Experimental data published in patent US11084800B2 (Achillion Pharmaceuticals, Inc., priority 2017, dated 2021).

What follows are compounds tested against Human Factor D (Homo sapiens (Human), UniProt P00746) (assay: Human Factor D Assay). Conditions: Table 6; Factor D 80 nM, substrate Z-L-Lys-SBz; read-out: IC50.
Type: biochemical
Method in brief: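 Serum-purified Factor D (80 nM final) preincubated 5 min at room temperature with compound in 50 mM Tris, 1 M NaCl, pH 7.5. Z-L-Lys-SBz and DTNB added at 100 μM each; A405 followed every 30 s for 30 min. IC50 from nonlinear regression of rates versus concentration.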

Sequence of Human Factor D (P00746 26-253): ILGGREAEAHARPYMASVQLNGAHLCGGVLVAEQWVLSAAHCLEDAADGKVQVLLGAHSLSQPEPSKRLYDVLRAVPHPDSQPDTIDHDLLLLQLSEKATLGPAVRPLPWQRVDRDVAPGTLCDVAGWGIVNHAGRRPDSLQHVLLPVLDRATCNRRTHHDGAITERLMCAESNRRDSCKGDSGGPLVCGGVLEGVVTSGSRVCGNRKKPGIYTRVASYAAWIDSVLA

| SMILES | IC50 |
| --- | --- |
| CC(=O)c1nn(CC(=O)N2[C@H](C(=O)Nc3nc(Br)ccc3C)C[C@@]3(CN4CC5(CCCC5)C4)C[C@@H]23)c2ccc(-c3cnc(C)nc3)cc12 [Compound 142, (1R,3S,5R)-5-(2-Azaspiro[3.4]octan-2-ylmethyl)-2-(2-(3-acetyl-5-(2-methylpyrimidin-5-yl)-1H-indazol-1-yl)acetyl)-N-(6-bromo-3-methylpyridin-2-yl)-2-azabicyclo[3.1.0]hexane-3-carboxamide] | < 1000 nM |
| CC(=O)c1nn(CC(=O)N2[C@H](C(=O)Nc3nc(Br)ccc3C)C[C@@]3(CN(C)C)C[C@@H]23)c2c(C#N)cc(-c3cnc(C)nc3)cc12 [Compound 143, (1R,3S,5R)-2-(2-(3-Acetyl-7-cyano-5-(2-methylpyrimidin-5-yl)-1H-indazol-1-yl)acetyl)-N-(6-bromo-3-methylpyridin-2-yl)-5-((dimethylamino)methyl)-2-azabicyclo[3.1.0]hexane-3-carboxamide] | < 1000 nM |
| CC(=O)c1nn(CC(=O)N2[C@H]3C[C@@]3(CN(C)C)C[C@H]2C(=O)Nc2nc(Br)ccc2C)c2c(C#N)cc(-c3cnc(C)nc3)cc12 [Compound 144, (1S,3S)-2-(2-(3-acetyl-7-cyano-5-(2-methylpyrimidin-5-yl)-1H-indazol-1-yl)acetyl)-N-(6-bromo-3-methylpyridin-2-yl)-5-((dimethylamino)methyl)-2-azabicyclo[3.1.0]hexane-3-carboxamide] | 1000 to 10000 nM |
| Cc1ncc(-c2ccc3c(c(C(N)=O)nn3CC(=O)N3[C@H](C(=O)Nc4nc(Br)ccc4C)C[C@@]4(C)C[C@@H]34)c2F)cn1 [Compound 145, 1-(2-((1R,3S,5R)-3-((6-Bromo-3-methylpyridin-2-yl)carbamoyl)-5-methyl-2-azabicyclo[3.1.0]hexan-2-yl)-2-oxoethyl)-4-fluoro-5-(2-methylpyrimidin-5-yl)-1H-indazole-3-carboxamide] | < 1000 nM |
| CC(=O)c1nn(CC(=O)N2[C@H](C(=O)Nc3nc(Br)ccc3C)C[C@@]3(C)C[C@@H]23)c2c(C(F)F)cc(-c3cnc(C)nc3)cc12 [Compound 146, (1R,3S,5R)-2-(2-(3-Acetyl-7-(difluoromethyl)-5-(2-methylpyrimidin-5-yl)-1H-indazol-1-yl)acetyl)-N-(6-bromo-3-methylpyridin-2-yl)-5-methyl-2-azabicyclo[3.1.0]hexane-3-carboxamide] | < 1000 nM |
| CC(=O)c1nn(CC(=O)N2[C@H](C(=O)Nc3nc(Br)ccc3C)C[C@@]3(C)C[C@@H]23)c2c(F)cc(-c3cnc(C)nc3)cc12 [Compound 147, (1R,3S,5R)-2-(2-(3-Acetyl-7-fluoro-5-(2-methylpyrimidin-5-yl)-1H-indazol-1-yl)acetyl)-N-(6-bromo-3-methylpyridin-2-yl)-5-methyl-2-azabicyclo[3.1.0]hexane-3-carboxamide] | < 1000 nM |
| CC(=O)c1nn(CC(=O)N2[C@H](C(=O)Nc3nc(Br)ccc3C)C[C@@]3(C)C[C@@H]23)c2ccc(-c3cnc(CC(=O)N(C)C)nc3)cc12 [Compound 148, (1R,3S,5R)-2-(2-(3-Acetyl-5-(2-(2-(dimethylamino)-2-oxoethyl)pyrimidin-5-yl)-1H-indazol-1-yl)acetyl)-N-(6-bromo-3-methylpyridin-2-yl)-5-methyl-2-azabicyclo[3.1.0]hexane-3-carboxamide] | < 1000 nM |
| CC(=O)c1nn(CC(=O)N2[C@H](C(=O)Nc3nc(Br)ccc3C)C[C@@]3(CN4CCC4)C[C@@H]23)c2c(C)cc(-c3cnc(C)nc3)cc12 [Compound 149, (1R,3S,5R)-2-(2-(3-Acetyl-7-methyl-5-(2-methylpyrimidin-5-yl)-1H-indazol-1-yl)acetyl)-5-(azetidin-1-ylmethyl)-N-(6-bromo-3-methylpyridin-2-yl)-2-azabicyclo[3.1.0]hexane-3-carboxamide] | < 1000 nM |
| CC(=O)c1nn(CC(=O)N2[C@H](C(=O)Nc3nc(Br)ccc3C)C[C@@]3(CN4CC(F)(F)C4)C[C@@H]23)c2c(C)cc(-c3cnc(C)nc3)cc12 [Compound 150, (1R,3S,5R)-2-(2-(3-Acetyl-7-methyl-5-(2-methylpyrimidin-5-yl)-1H-indazol-1-yl)acetyl)-N-(6-bromo-3-methylpyridin-2-yl)-5-((3,3-difluoroazetidin-1-yl)methyl)-2-azabicyclo[3.1.0]hexane-3-carboxamide] | < 1000 nM |
| CC(=O)c1nn(CC(=O)N2[C@H](C(=O)Nc3nc(Br)ccc3C)C[C@@]3(CNC4CC4)C[C@@H]23)c2ccc(-c3cnc(C)nc3)cc12 [Compound 151, (1R,3S,5R)-2-(2-(3-Acetyl-5-(2-methylpyrimidin-5-yl)-1H-indazol-1-yl)acetyl)-N-(6-bromo-3-methylpyridin-2-yl)-5-((cyclopropylamino)methyl)-2-azabicyclo[3.1.0]hexane-3-carboxamide] | < 1000 nM |
| COCc1ccc(Br)nc1NC(=O)[C@@H]1C[C@@]2(COC)C[C@H]2N1C(=O)Cn1nc(C(C)=O)c2cc(-c3cnc(C)nc3)ccc21 [Compound 152, (1R,3S,5S)-2-(2-(3-Acetyl-5-(2-methylpyrimidin-5-yl)-1H-indazol-1-yl)acetyl)-N-(6-bromo-3-(methoxymethyl)pyridin-2-yl)-5-(methoxymethyl)-2-azabicyclo[3.1.0]hexane-3-carboxamide] | < 1000 nM |
| COCc1ccc(Br)nc1NC(=O)[C@@H]1C[C@@]2(CNC(=O)[C@@H](NC(=O)OC)C(C)C)C[C@H]2N1C(=O)Cn1nc(C(C)=O)c2cc(-c3cnc(C)nc3)ccc21 [Compound 153, Methyl ((S)-1-((((1R,3S,5R)-2-(2-(3-acetyl-5-(2-methylpyrimidin-5-yl)-1H-indazol-1-yl)acetyl)-3-((6-bromo-3-(methoxymethyl)pyridin-2-yl)carbamoyl)-2-azabicyclo[3.1.0]hexan-5-yl)methyl)amino)-3-methyl-1-oxobutan-2-yl)carbamate] | < 1000 nM |
| C=CCOC[C@@]12C[C@@H](C(=O)Nc3nc(Br)ccc3C)N(C(=O)Cn3nc(C(C)=O)c4cc(-c5cnc(C)nc5)cc(CC=C)c43)[C@@H]1C2 [Compound 154, (1R,3S,5S)-2-(2-(3-acetyl-7-allyl-5-(2-methylpyrimidin-5-yl)-1H-indazol-1-yl)acetyl)-5-((allyloxy)methyl)-N-(6-bromo-3-methylpyridin-2-yl)-2-azabicyclo[3.1.0]hexane-3-carboxamide] | < 1000 nM |
| CC(=O)c1nn(CC(=O)N2[C@H](C(=O)Nc3nc(Br)ccc3C)C[C@@]3(CN(C)C)C[C@@H]23)c2ccc(-c3cnc(C)nc3)c(F)c12 [Compound 155, (1R,3S,5R)-2-(2-(3-Acetyl-4-fluoro-5-(2-methylpyrimidin-5-yl)-1H-indazol-1-yl)acetyl)-N-(6-bromo-3-methylpyridin-2-yl)-5-((dimethylamino)methyl)-2-azabicyclo[3.1.0]hexane-3-carboxamide] | < 1000 nM |
| CC(=O)c1nn(CC(=O)N2[C@H]3C[C@@]3(CN(C)C)C[C@H]2C(=O)Nc2nc(Br)ccc2C)c2ccc(-c3cnc(C)nc3)c(F)c12 [Compound 156, (1S,3S,5S)-2-(2-(3-Acetyl-4-fluoro-5-(2-methylpyrimidin-5-yl)-1H-indazol-1-yl)acetyl)-N-(6-bromo-3-methylpyridin-2-yl)-5-((dimethylamino)methyl)-2-azabicyclo[3.1.0]hexane-3-carboxamide] | > 10000 nM |
| CC(=O)c1nn(CC(=O)N2[C@H](C(=O)Nc3nc(Br)ccc3C)C[C@@]3(COCCN(C)C)C[C@@H]23)c2ccc(-c3cnc(C)nc3)cc12 [Compound 157] | < 1000 nM |
| CC(=O)c1nn(CC(=O)N2C[C@H]3C[C@H]3[C@H]2C(=O)Nc2nc(Br)c(F)cc2C)c2cnc(-c3cnc(C)nc3)cc12 [Compound 172, (1R,2S,5S)-3-(2-(3-Acetyl-5-(2-methylpyrimidin-5-yl)-1H-pyrazolo[3,4-c]pyridin-1-yl)acetyl)-N-(6-bromo-5-fluoro-3-methylpyridin-2-yl)-3-azabicyclo[3.1.0]hexane-2-carboxamide] | < 1000 nM |
| CC(=O)c1nn(CC(=O)N2[C@H](C(=O)Nc3nc(Br)ccc3C)C[C@@]3(C(N)=O)C[C@@H]23)c2c(C)cc(-c3cnc(C)nc3)cc12 [Compound 173, (1R,3S,5S)-2-(2-(3-acetyl-7-methyl-5-(2-methylpyrimidin-5-yl)-1H-indazol-1-yl)acetyl)-N3-(6-bromo-3-methylpyridin-2-yl)-2-azabicyclo[3 .1.0]hexane-3,5-dicarboxamide] | > 10000 nM |
| CC(=O)c1nn(CC(=O)N2[C@H](C(=O)Nc3nc(Br)ccc3C)C[C@@]3(C#N)C[C@@H]23)c2c(C)cc(-c3cnc(C)nc3)cc12 [Compound 174, (1R,3S,5S)-2-(2-(3-acetyl-7-methyl-5-(2-methylpyrimidin-5-yl)-1H-indazol-1-yl)acetyl)-N-(6-bromo-3-methylpyridin-2-yl)-5-cyano-2-azabicyclo[3.1.0]hexane-3-carboxamide] | > 10000 nM |
| CC(=O)c1nn(CC(=O)N2C[C@@H](C(F)(F)F)C[C@H]2C(=O)Nc2nc(Br)ccc2C)c2c(C)cc(-c3cnc(C)nc3)cc12 [Compound 175] | < 1000 nM |
| CC(=O)c1nn(CC(=O)N2[C@H](C(=O)Nc3nc(Br)ccc3C)C[C@@]3(CN(CCF)CCF)C[C@@H]23)c2c(C)cc(-c3cnc(C)nc3)cc12 [Compound 176] | < 1000 nM |
| CC(=O)c1nn(CC(=O)N2[C@H](C(=O)Nc3nc(Br)ccc3CN3CC(F)(F)C3)C[C@@]3(C)C[C@@H]23)c2ccc(-c3cnc(C)nc3)cc12 [Compound 177, (1R,3S,5R)-2-(2-(3-Acetyl-5-(2-methylpyrimidin-5-yl)-1H-indazol-1-yl)acetyl)-N-(6-bromo-3-((3,3-difluoroazetidin-1-yl)methyl)pyridin-2-yl)-5-methyl-2-azabicyclo[3.1.0]hexane-3-carboxamide] | < 1000 nM |
| CC(=O)c1nn(CC(=O)N2[C@H](C(=O)Nc3nc(Br)c(F)cc3C)C[C@@]3(C)C[C@@H]23)c2ccc(-c3cnc(C)nc3)cc12 [Compound 178, (1R,3S,5R)-2-(2-(3-Acetyl-5-(2-methylpyrimidin-5-yl)-1H-indazol-1-yl)acetyl)-N-(6-bromo-5-fluoro-3-methylpyridin-2-yl)-5-methyl-2-azabicyclo[3.1.0]hexane-3-carboxamide] | < 1000 nM |
